For 15 molecules, IC50 results are on record in patent US20240409585A1, “MACROCYCLIC IMMUNOMODULATORS” (priority 2021, published 2024).

Bridge positions count the residues as written; N and C are the ends. Square brackets hold non-standard residues; d marks the D form. Peptide text beside a SMILES is read from it. * marks the point of attachment. ξ: configuration not given here. Ala(morpholin-4-yl) = N[C@@H](CN1CCOCC1)C(=O)O; Phe(4-COOH) = N[C@@H](Cc1ccc(C(=O)O)cc1)C(=O)O; dPhe(2,4-F2) = N[C@H](Cc1ccc(F)cc1F)C(=O)O; Bip = N[C@@H](Cc1ccc(-c2ccccc2)cc1)C(=O)O; Phe(3-CN) = N#Cc1cccc(C[C@H](N)C(=O)O)c1; Phe(3-Me) = Cc1cccc(C[C@H](N)C(=O)O)c1; Phe(2-F) = N[C@@H](Cc1ccccc1F)C(=O)O; Gly(cPent) = N[C@H](C(=O)O)C1CCCC1; Val(3-OH) = CC(C)(O)[C@H](N)C(=O)O; 4Pal = N[C@@H](Cc1ccncc1)C(=O)O; Cha = N[C@@H](CC1CCCCC1)C(=O)O; Cit = NC(=O)NCCC[C@H](N)C(=O)O; Ile(3ξ) = CCC(C)[C@H](N)C(=O)O; Thr(3ξ) = CC(O)[C@H](N)C(=O)O; dNle = CCCC[C@@H](N)C(=O)O; Pip = O=C(O)[C@@H]1CCCCN1; Carboxymethyl = O=C(O)C*; NMeA = CN[C@@H](C)C(=O)O; Orn = NCCC[C@H](N)C(=O)O; Dab = NCC[C@H](N)C(=O)O; Dap = NC[C@H](N)C(=O)O; ξDab = NCCC(N)C(=O)O

T1 sequence (Q15116 25-288): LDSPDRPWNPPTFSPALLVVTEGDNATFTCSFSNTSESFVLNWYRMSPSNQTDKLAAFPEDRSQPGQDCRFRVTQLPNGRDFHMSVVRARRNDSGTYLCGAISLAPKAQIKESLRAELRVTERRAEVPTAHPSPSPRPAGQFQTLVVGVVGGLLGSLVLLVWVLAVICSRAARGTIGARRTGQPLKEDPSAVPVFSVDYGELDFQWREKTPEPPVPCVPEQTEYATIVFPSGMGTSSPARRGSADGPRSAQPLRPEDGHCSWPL

This assay concerns the target T1, PE-labeled human PD-L1-Ig binding to Jurkat cell line over-expressing human PD-1 (Jurkat-PD-1) (Homo sapiens, UniProt Q15116).
T1 construct: expressed in transfected cells; host or cells: Jurkat
Put plainly: Jurkat-PD-1 Cell Binding High-Content Screening Assay (CBA): Method 1. The settings on record: Jurkat-hPD-1 cells, PE-labeled PD-L1-Ig 20 nM final; read-out: Jurkat HPDL1 PD1 IC50 (uM) (Method 1).
As to `CC(C)C[C@@H]1NC(=O)[C@H](CCN)NC(=O)[C@@H](CC(C)C)NC(=O)[C@H](C)N(C)C(=O)[C@H](C(C)C)NC(=O)[C@H](Cc2ccc(-c3ccccc3)cc2)NC(=O)[C@H](C(C)C)NC(=O)[C@H](Cc2c[nH]c3ccccc23)NC(=O)[C@H](CC(=O)O)NC(=O)[C@H](Cc2ccccc2F)NC(=O)[C@H](CN)NC(=O)CSC[C@@H](C(=O)N[C@@H](C)C(N)=O)NC(=O)[C@H]([C@@H](C)O)NC(=O)[C@H](C(C)C)NC1=O` [Compound 1442] ({CH2CO}-[Dap][Phe(2-F)]DWV[Bip]V[NMeA][dL][Dab]LVTCA-NH2; thioether N-14), the IC50 came out at 0.03 µM. Under `CC(C)C[C@@H]1NC(=O)[C@H](CCN)NC(=O)[C@@H](CC(C)C)NC(=O)[C@H](C)N(C)C(=O)[C@H](CCCN)NC(=O)[C@H](Cc2ccc(-c3ccccc3)cc2)NC(=O)[C@H](C(C)C)NC(=O)[C@H](Cc2c[nH]c3ccccc23)NC(=O)[C@H](CC(=O)O)NC(=O)[C@H](Cc2ccc(O)cc2)NC(=O)[C@H](Cc2ccncc2)NC(=O)CSC[C@@H](C(=O)N[C@@H](C)C(N)=O)NC(=O)[C@H](C(C)O)NC(=O)[C@H](C(C)C)NC1=O` (stereo partly drawn) [Compound 2081] ({CH2CO}-[4Pal]YDWV[Bip][Orn][NMeA][dL][Dab]LV[Thr(3ξ)]CA-NH2; thioether N-14) stands 0.03 µM.

Turning to `Cc1cccc(C[C@@H]2NC(=O)[C@H](CC(=O)O)NC(=O)[C@H](Cc3ccc(OCC(=O)O)cc3)NC(=O)[C@H](CN3CCOCC3)NC(=O)CSC[C@@H](C(=O)NC(CCN)C(N)=O)NC(=O)[C@H](CCCN)NC(=O)[C@H](C(C)C)NC(=O)[C@H](Cc3ccc(O)cc3)NC(=O)[C@H](CCN)NC(=O)[C@@H](CC(C)C)NC(=O)[C@H](C)N(C)C(=O)[C@H](CCC(N)=O)NC(=O)[C@H](Cc3ccc(-c4ccccc4)cc3)NC(=O)[C@H](Cc3ccc(C(=O)O)cc3)NC2=O)c1` (stereo partly drawn) [Example 2301] ({CH2CO}-[Ala(morpholin-4-yl)]Y(Carboxymethyl)D[Phe(3-Me)][Phe(4-COOH)][Bip]Q[NMeA][dL][Dab]YV[Orn]C[ξDab]-NH2; thioether N-14), the IC50 turned out to be 0.98 µM. In the case of `CC(C)C[C@@H]1NC(=O)[C@H](CCCNC(=N)N)NC(=O)[C@@H](Cc2cnc[nH]2)NC(=O)[C@H](C)N(C)C(=O)[C@H](CCCNC(=N)N)NC(=O)[C@H](Cc2ccc(-c3ccccc3)cc2)NC(=O)[C@H](C(C)C)NC(=O)[C@H](Cc2c[nH]c3ccccc23)NC(=O)[C@H](CC(=O)O)NC(=O)[C@H](Cc2ccc(O)cc2)NC(=O)[C@H](Cc2ccccc2)NC(=O)CSC[C@@H](C(=O)NCC(N)=O)NC(=O)[C@H](CO)NC(=O)[C@H](C(C)C)NC1=O` [Compound 1022] ({CH2CO}-FYDWV[Bip]R[NMeA][dH]RLVSCG-NH2; thioether N-14), the IC50 turned out to be 0.64 µM.

In the case of `Cc1cccc(C[C@@H]2NC(=O)[C@H](CC(=O)O)NC(=O)[C@H](Cc3ccncc3)NC(=O)[C@H](Cc3ccc(OCC(=O)O)cc3)NC(=O)CSC[C@@H](C(=O)N[C@@H](C)C(N)=O)NC(=O)[C@H](CO)NC(=O)[C@H](C(C)C)NC(=O)[C@H](CC(C)C)NC(=O)[C@H](CC(N)=O)NC(=O)[C@@H](CC(C)C)NC(=O)[C@H](C)N(C)C(=O)[C@H](C(C)C)NC(=O)[C@H](Cc3ccc(-c4ccccc4)cc3)NC(=O)[C@H](CC(C)C)NC2=O)c1` [Compound 1589] ({CH2CO}-Y(Carboxymethyl)[4Pal]D[Phe(3-Me)]L[Bip]V[NMeA][dL]NLVSCA-NH2; thioether N-14), the IC50 is 0.03 µM. For `CC(C)C[C@@H]1NC(=O)[C@H](CCCNC(=N)N)NC(=O)[C@@H](CC(C)C)NC(=O)[C@H](C)N(C)C(=O)[C@H](CCCNC(=N)N)NC(=O)[C@H](Cc2ccc(-c3ccccc3)cc2)NC(=O)[C@H](C(C)C)NC(=O)[C@H](Cc2cccc(C#N)c2)NC(=O)[C@H](CC(=O)O)NC(=O)[C@H](Cc2ccc(O)cc2)NC(=O)[C@H](CC(N)=O)NC(=O)CSC[C@@H](C(=O)N[C@@H](C)C(N)=O)NC(=O)[C@H]([C@@H](C)O)NC(=O)[C@H](C(C)C)NC1=O` [Compound 1196] ({CH2CO}-NYD[Phe(3-CN)]V[Bip]R[NMeA][dL]RLVTCA-NH2; thioether N-14), the IC50 turned out to be 0.24 µM. Under `CC(C)C[C@@H]1NC(=O)[C@H](CCCNC(=N)N)NC(=O)[C@@H](Cc2ccc(F)cc2F)NC(=O)[C@H](C)N(C)C(=O)[C@H](CCCNC(=N)N)NC(=O)[C@H](Cc2ccc(-c3ccccc3)cc2)NC(=O)[C@H](C(C)C)NC(=O)[C@H](Cc2c[nH]c3ccccc23)NC(=O)[C@H](CC(=O)O)NC(=O)[C@H](Cc2ccc(O)cc2)NC(=O)[C@H](Cc2ccccc2)NC(=O)CSC[C@@H](C(=O)N[C@@H](C)C(N)=O)NC(=O)[C@H]([C@@H](C)O)NC(=O)[C@H](C(C)C)NC1=O` [Compound 1073] ({CH2CO}-FYDWV[Bip]R[NMeA][dPhe(2,4-F2)]RLVTCA-NH2; thioether N-14) stands 0.13 µM.

In the case of `CCCC[C@H]1NC(=O)[C@H](C)N(C)C(=O)[C@H](CCCNC(=N)N)NC(=O)[C@H](Cc2ccc(-c3ccccc3)cc2)NC(=O)[C@H](C(C)C)NC(=O)[C@H](Cc2c[nH]c3ccccc23)NC(=O)[C@H](CC(=O)O)NC(=O)[C@H](Cc2ccc(O)cc2)NC(=O)[C@H](Cc2ccccc2)NC(=O)CSC[C@@H](C(=O)N[C@@H](C)C(N)=O)NC(=O)[C@H]([C@@H](C)O)NC(=O)[C@H](C(C)C)NC(=O)[C@H](CC(C)C)NC(=O)[C@H](CCCNC(=N)N)NC1=O` [Compound 1063] ({CH2CO}-FYDWV[Bip]R[NMeA][dNle]RLVTCA-NH2; thioether N-14), the IC50 was 0.06 µM.

For the molecule `CC(C)C[C@@H]1NC(=O)[C@H](CCN)NC(=O)[C@@H](CC(C)C)NC(=O)[C@H](C)N(C)C(=O)[C@H](CCCNC(N)=O)NC(=O)[C@H](Cc2ccc(-c3ccccc3)cc2)NC(=O)[C@H](C(C)C)NC(=O)[C@H](Cc2c[nH]c3ccccc23)NC(=O)[C@H](CC(=O)O)NC(=O)[C@H](Cc2ccc(O)cc2)NC(=O)[C@H](CCCN)NC(=O)CSC[C@@H](C(=O)N[C@@H](C)C(N)=O)NC(=O)[C@H]([C@@H](C)O)NC(=O)[C@H](C(C)C)NC1=O` [Compound 1347] ({CH2CO}-[Orn]YDWV[Bip][Cit][NMeA][dL][Dab]LVTCA-NH2; thioether N-14), the IC50 came out at 0.03 µM. Under `CC(C)C[C@@H]1NC(=O)[C@H](Cc2c[nH]c3ccccc23)NC(=O)[C@H](CC(=O)O)NC(=O)[C@H](Cc2ccc(O)cc2)NC(=O)[C@H](Cc2ccccc2)NC(=O)CSC[C@@H](C(=O)N[C@@H](C)C(N)=O)NC(=O)[C@H]([C@@H](C)O)NC(=O)[C@H](CCCNC(=N)N)NC(=O)[C@H](CC(C)C)NC(=O)[C@H](CC(N)=O)NC(=O)[C@@H](C)NC(=O)[C@H](C)N(C)C(=O)[C@H](C(C)C)NC(=O)[C@H](Cc2ccc(-c3ccccc3)cc2)NC1=O` [Compound 1789] ({CH2CO}-FYDWL[Bip]V[NMeA][dA]NLRTCA-NH2; thioether N-14) stands 0.12 µM; under `CC[C@H](C)[C@@H]1NC(=O)[C@H](Cc2ccc(-c3ccccc3)cc2)NC(=O)[C@H](C(C)C)NC(=O)[C@H](Cc2c[nH]c3ccccc23)NC(=O)[C@H](CC(=O)O)NC(=O)[C@H](Cc2ccc(O)cc2)NC(=O)[C@H](CN)NC(=O)CSC[C@@H](C(=O)N[C@@H](C)C(N)=O)NC(=O)[C@H]([C@@H](C)O)NC(=O)[C@H](C(C)C)NC(=O)[C@H](CC(C)C)NC(=O)[C@H](CCCNC(=N)N)NC(=O)[C@@H](CC(C)C)NC(=O)[C@H](C)N(C)C1=O` [Compound 1488] ({CH2CO}-[Dap]YDWV[Bip]I[NMeA][dL]RLVTCA-NH2; thioether N-14), 0.04 µM; under `CCC(C)[C@@H]1NC(=O)[C@H](Cc2ccc(-c3ccccc3)cc2)NC(=O)[C@H](CC(C)C)NC(=O)[C@H](Cc2c[nH]c3ccccc23)NC(=O)[C@H](CC(=O)O)NC(=O)[C@H](Cc2ccc(OCC(=O)O)cc2)NC(=O)[C@H](C(C)O)NC(=O)CSC[C@@H](C(=O)N[C@@H](CC(N)=O)C(=O)O)NC(=O)[C@H](C2CCCC2)NC(=O)[C@H](C(C)C)NC(=O)[C@H](CC(C)C)NC(=O)[C@H](CCN)NC(=O)[C@@H](CC(C)C)NC(=O)[C@H](C)N(C)C1=O` (stereo partly drawn) [Compound 2227] ({CH2CO}-[Thr(3ξ)]Y(Carboxymethyl)DWL[Bip][Ile(3ξ)][NMeA][dL][Dab]LV[Gly(cPent)]CN-OH; thioether N-14), 0.81 µM. The result for `CC[C@H](C)[C@@H]1NC(=O)[C@H](Cc2ccc(-c3ccccc3)cc2)NC(=O)[C@H](C(C)(C)O)NC(=O)[C@H](Cc2cccc(C)c2)NC(=O)[C@H](CC(=O)O)NC(=O)[C@H](Cc2ccc(O)cc2)NC(=O)[C@H](CC(N)=O)NC(=O)CSC[C@@H](C(=O)N[C@@H](CCN)C(N)=O)NC(=O)[C@H]([C@@H](C)O)NC(=O)[C@H](C(C)C)NC(=O)[C@H](CC(C)C)NC(=O)[C@H](CCN)NC(=O)[C@@H](CC(C)C)NC(=O)[C@H](C)N(C)C1=O` [Compound 1686] ({CH2CO}-NYD[Phe(3-Me)][Val(3-OH)][Bip]I[NMeA][dL][Dab]LVTC[Dab]-NH2; thioether N-14) reads 0.16 µM; that for `CC(C)C[C@@H]1NC(=O)[C@H](CCN)NC(=O)[C@@H](CC(C)C)NC(=O)[C@H](C)N(C)C(=O)[C@H](CCC(=O)O)NC(=O)[C@H](Cc2ccc(-c3ccccc3)cc2)NC(=O)[C@H](C(C)C)NC(=O)[C@H](Cc2c[nH]c3ccccc23)NC(=O)[C@H](CC(=O)O)NC(=O)[C@H](Cc2ccc(O)cc2)NC(=O)[C@H](CC(N)=O)NC(=O)CSC[C@@H](C(=O)N[C@@H](C)C(N)=O)NC(=O)[C@H](CCCN)NC(=O)[C@H](C(C)C)NC1=O` [Compound 1238] ({CH2CO}-NYDWV[Bip]E[NMeA][dL][Dab]LV[Orn]CA-NH2; thioether N-14), 0.03 µM. For the molecule `Cc1cccc(C[C@@H]2NC(=O)[C@H](CC(=O)O)NC(=O)[C@H](Cc3ccc(OCC(=O)O)cc3)NC(=O)[C@H](CN)NC(=O)CSC[C@@H](C(N)=O)NC(=O)[C@H](CCC(=O)O)NC(=O)[C@H](C(C)C)NC(=O)[C@H](CC3CCCCC3)NC(=O)[C@H](CCN)NC(=O)[C@@H](CC(C)C)NC(=O)[C@@H]3CCCCN3C(=O)[C@H](Cc3ccc(OCC(=O)O)cc3)NC(=O)[C@H](Cc3ccc(-c4ccccc4)cc3)NC(=O)[C@H](Cc3ccc(OCC(=O)O)cc3)NC2=O)c1` [Compound 1894] ({CH2CO}-[Dap]Y(Carboxymethyl)D[Phe(3-Me)]Y(Carboxymethyl)[Bip]Y(Carboxymethyl)[Pip][dL][Dab][Cha]VEC-NH2; thioether N-14), the IC50 was found to be 0.3 µM.

For orientation: IC50 means the concentration needed to halve the response being measured.
